Measurements: patent publication US7977364B2, “Indazoles, benzisoxazoles and benzisothiazoles and their use as estrogenic agents” (Laboratoire Thermamex, priority 2004, dated 2011)
Read-outs that look alike come from different tables or passages of the source.

Assays:
[1] = test system: ovariectomized rats; experiment: Hot flush model in vivo: tail skin temperature, uteri and body weight; details: 3 mg/rat/day
[2] = test system: human endometrial adenocarcinoma Ishikawa cells; experiment: Estrogenic and anti-estrogenic activities in vitro: induction of alkaline phosphatase (APase) activity; format: cell-based; details: Homo sapiens, Ishikawa, 96 h; compound alone, four days; ND = not detected; read-out: Estrogenic activity EC50 (nM) ± S.E.M
Procedure: The estrogenic and anti-estrogenic potentials of new compounds were evaluated using the induction of alkaline phosphatase (APase) activity, an estrogen specific response in human endometrial adenocarcinoma Ishikawa cells (Botella J., J Steroid Biochem Molec Biol, 1995, 55: 77-84; Littlefield et al., Endocrinology, 1990, 127: 2757-2762).
Ishikawa cells were routinely grown as monolayers in Dulbecco's Modified Eagle's medium (DMEM) containing 4 mM Glutamax I and supplemented with 10% of decomplemented fetal calf serum (dFCS) and antibiotics. They were maintained in a humidified atmosphere of 5% CO2 and 95% air, at 37±0.1° C. Stocks were performed once a week to maintain continuous exponential growth.
For studies, Ishikawa cells were plated into 96-well microplates. The next day, the medium was changed to a phenol red-free DMEM containing 5% dFCS stripped of endogenous estrogens by dextran coated charcoal treatment.
At the end of the incubation period, APase activity was assayed by a method involving the hydrolysis of p-nitrophenyl phosphate to p-nitrophenol at pH 9.8 and spectrophotometric determination of the product at 405 nm.
In brief, the microplates were first rinsed twice with cold phosphate buffered solution and then placed at −80° C. for at least 15 minutes. After thawing at room temperature for 5-10 minutes, the plates were put on ice and 50 μl ice-cold solution containing 5 mM p-nitrophenyl phosphate was added to each well. The plates were warmed to room temperature to allow for the development of the enzymatic reaction (t0). After a 15 to 60 minute incubation period, the intensity of the yellow color generated by the production of p-nitrophenol was measured into each well at 405 nm using a microplate reader (Wallac, model 1420 Victor^2). […] Sigmoidal dose-response curves were plotted and EC50 (estrogenic effect) and IC50 (anti-estrogenic effect) values were calculated for each compound.

[3] = test system: human breast cancer cell line MCF-7; experiment: Proliferative activity in vitro (ATP luminescence, 6 days); format: cell-based; details: Homo sapiens, MCF7, 144 h
Procedure: The proliferative effect of the compounds of the invention was evaluated on human breast cancer cell line MCF-7 by measuring the number of viable cells after 6 days of treatment.
MCF-7 cells were routinely cultured as monolayers in Dulbecco's modified Eagle's medium (DMEM) containing 4 mM Glutamax and 4.5 g/l glucose and supplemented with 5% (v/v) decomplemented fetal calf serum (dFCS) and antibiotics.
Cells were plated at 2.10^6 cells/75 cm^2 flasks and incubated at 37° C. in a humidified atmosphere containing 5% CO2. They were passaged once weekly to maintain continuous exponential growth. Forty eight hours before the start of an experiment, near-confluent cells were changed to a phenol red free DMEM containing 5% steroid-stripped dFCS by dextran coated charcoal treatment (DCC-DMEM). On the day of the experiment, cells were harvested by brief exposure to trypsin and plated in DCC-DMEM in 96-well microplates at a density of 4.10^3 cells/well. The next day, the medium was renewed and test compounds, diluted appropriately in estrogen-free DMEM, were added and incubated for six days. […] At the end of the incubation period, cell proliferation was evaluated by quantitation of the cellular ATP content which signals the presence of metabolically active cells.
The assay, based on the ATP-dependent luciferase reaction, enables generation of a luminescent signal proportional to the amount of ATP present. As there is a linear relationship between the amount of ATP and the number of viable cells present in culture, the luminescent signal allowed to precisely evaluate cell proliferation (Crouch, S. P. M. et al. J. Immunol. Meth., 1993, 160, 81; Kangas, L. et al. Med. Biol. 1984, 62, 338; Petty, R. D. et al. J. Biolum. Chemilum. 1995, 10, 29).
In brief, the microplates were inverted to discard the culture medium and 100 μl of fresh medium was added into each well. The microplates were equilibrated at room temperature for approximately 30 minutes. 100 μl of luciferase reagent was added into each well and contents were mixed for 2 minutes to induce cell lysis. The plates were incubated at room temperature for 10 minutes to stabilize luminescence signal.
Luminescence was recorded using a microplate reader (Wallac, model 1420 Victor^2) and results were expressed as percentage of the control luminescence. Sigmoidal dose-response curves were plotted and EC50 values were calculated for each compound in order to evaluate their proliferative potency.

[4] = test system: Prepubescent female rats; experiment: Estrogenic / uterotrophic activity in vivo (uterus wet weight); set-up: species or system rat; details: Rattus norvegicus, po, 72 h, orally 3 mg/rat/day for 3 days, read-out: % stimulation vs vehicle (uterus weight)
Procedure: Prepubescent female rats were orally treated at 3 mg/rat/day for 3 days. On the day following the last treatment, uteri were removed and wet weights were recorded.
The results are expressed as % of stimulation of uterus weight in comparison with vehicles. […]
Prepubescent female rats were orally treated with 0.3; 1; 3 or 10 mg/rat/day for 3 days. On the day following the last treatment, uteri were removed and wet weights were recorded.

[5] = test system: rats; experiment: Forced swimming test (antidepressant activity, immobility duration); format: in vivo, rat
Excerpt: Antidepressant effect of estradiol was recently reported in studies using ER β KO mice model. In addition, ER β localization in dorsal raphe nucleus area in rat has been described. The gold standard test for antidepressant potency of compound consist in the forced swimming test, in this experiment antidepressants could be distinguished from psychostimulants which decreased immobility at doses which increased general activity. In order to investigate the putative antidepressant potency of the compounds reported here, the forced swimming test was performed according to the following design. The animals were housed six per cage under standard colony conditions, with a 12 h light/dark cycle and ad libitum food and water. They were allowed to acclimatize to the colony for at least 7 days prior to any experimentation. For subcutaneous administration, the compound of Example 23 was dissolved in olive oil and diluted to the desired concentration on the day of administration. For positive control, intraperitoneal (i.p.) injection of desipramine was done. Desipramine was dissolved in double-distilled water (10 mg/kg). The experiments were conducted 30 min after the positive control drug treatment (only for desipramine treatment). Other compounds, ie: estradiol and the compound of Example 23 were daily injected subcutaneously in rats, during a 7 days period. Acquisition were performed on day 8 (24 h after the last administration of items) and day 9 (48 h after estradiol or compound 23 administration), respectively. Data acquired 24 hours after the last administration consisted in the “naïve animal group”, these animals had never been previously tested in the device. Data acquired 48 hours after a last administration of compounds consisted in “trained animal group”.
On the 8th, the forced swim test was performed. This study was carried out in rats according to the methods described by Porsolt (Eur. J. Pharm., 1978). Briefly, rats were placed individually in glass cylinders (height: 40 cm, diameter: 18 cm) containing 25 cm of water at 25° C. Ten minutes later, rats were removed and dried before being returned to their home cages. The animals were replaced in the cylinders 24 h later, and the procedure was repeated, and a 10-min observation period was recorded.

EC50 [2]	EC50 ([3]; read-out: Cell proliferation EC50 (nM) ± S.E.M)	SMILES	TST Variation day 1 vs day 0 [1]	TST Variation day 4 vs day 0 [1]	TST Variation day 7 vs day 0 [1]	Body weights (% increase vs vehicle) ([1]; after one week treatment)	Uteri weight (% increase vs vehicle) ([1]; after one week treatment)	activity at 1 µM ([3]; MCF-7, 10^−6 M, six days, read-out: Effect at 10^−6 M (% of control))	activity at 0.01 µM ([3]; MCF-7, 10^−8 M, six days, read-out: Effect at 10^−8 M (% of control))	change in vivo at 3 mg ([4]; Table 4)	change in vivo at 3 mg ([4]; Table 5)	immobility duration, Naïve animals ([5]; 0.007 mg/rat/day s.c. 7 days, 24 h after last administration, 10 minutes test)	immobility duration, Trained animals ([5]; 0.007 mg/rat/day s.c. 7 days, 48 h after last administration, 10 minutes test)	antidepressor potency ([5]; 24 h and 48 h after administration, in words)	immobility duration, Trained animals ([5]; dosage 30 (mg/rat/day) as in table, i.p., 30 min before test, 10 minutes test)
0.1 ± 0.05 nM	0.01 nM	C[C@]12CC[C@@H]3c4ccc(O)cc4CC[C@H]3[C@@H]1CC[C@@H]2O [Example E2, 17β-estradiol, reference compound]	−4.8 C. °	−3.5 C. °	−5.6 C. °	−10%	273%	205%	212%	526%	333%	22.5 ± 7.1 s	79.2 ± 23.0 s	confirmation of the antidepressor potency	
		CNCCCN1c2ccccc2CCc2ccccc21 [desipramine, reference compound]													2.6 ± 1.5 s
